Assay results published in patent publication EP0359529B1, “Method for the control of pneumocystis carinii” (Merck & Co., Inc., priority 1988, dated 1990).
Numbered stars: 1 amine (or outer) side, 2 acyl side, 3 side chain; on linkers, the order of the positions; unused ones are H or OH. Bridge positions count the residues as written; N and C are the ends. Square brackets hold non-standard residues; d marks the D form. Peptide text beside a SMILES is read from it. * marks the point of attachment. ξ: configuration not given here. ξOrn(4R-OH,5R-OH) = O=C(C(C[C@@H](O)[C@@H](O)N[*:3])N[*:1])[*:2]; ξhTyr(3S-OH,4S-OH) = NC(C(=O)O)[C@H](O)[C@@H](O)c1ccc(O)cc1; ξOrn(4,5-diOH) = O=C(C(CC(O)C(O)N[*:3])N[*:1])[*:2]; ξhTyr(βξ-OH,γξ-OH) = NC(C(=O)O)C(O)C(O)c1ccc(O)cc1; Benzoyl(4-octyloxy) = CCCCCCCCOc1ccc(C(=O)*)cc1; X3 = C[C@H]1CN([*:1])C(C(=O)[*:2])[C@H]1O; ξPro(3ξ-OH,4ξ-Me) = CC1CNC(C(=O)O)C1O; X2 = NC(=O)CC(O)C(N[*:1])C(=O)[*:2]; ξPro(4R-OH) = O=C(O)C1C[C@@H](O)CN1; X1 = CCC(C)CC(C)CCCCCCCCC(=O)*; Hyp = O=C(O)[CH]1C[CH](O)CN1; ξT = CC(O)C(N)C(=O)O

Legend:
P. carinii [1] = assay: Immunosuppressed rat study of P. carinii infection, two week treatment, lung cysts and parasite nuclei counted; type: in vivo, Sprague-Dawley rats; details: dexamethasone-immunosuppressed rats; two weeks treatment; Compound IA 2 mg i.p. twice daily; TMP-SMZ in drinking water (208 mg TMP and 1.040 g SMZ/liter); controls 3.2 x 10⁸ - 1.5 x 10⁹
Method: In a representative study employing Compound IA in rats, nine male Sprague-Dawley rats weighing approximately 200 grams each, were immunosupressed by the addition of dexamethasone to the drinking water (2.0 mg/liter) for six weeks to induce the development of P. carinii infections. To enhance the infection the rats were also maintained on a low protein diet. At the beginning of the seventh week the rats were divided into three groups of three rats each. All three groups continued to receive dexamethasone in the drinking water and low protein diet throughout the remainder of the study. The rats in Group I were kept as untreated infected controls, those in Group II were injected intraperitoneally twice daily for two weeks with 0.5 ml of sterile dH₂O containing 2 mg of Compound IA, and those in Group III were treated with trimethoprim-sulfamethoxazole (TMP-SMZ) in the drinking water (208 mg TMP and 1.040 g of SMZ/liter) for two weeks, a known treatment for P. carinii infections. Two rats died early in the experiment. One was from group II (rat 72A) and the other from group III (rat 75A). It was not determined whether they died from Pneumocystis pneumonia. At the end of the two week treatment period (a total of eight weeks of immonosuppression) the animals were sacrificed and the lung tissue removed. […]

P. carinii [2] = assay: Similar immunosuppressed rat study, 7 day treatment, cysts per lung counted; type: in vivo; details: immunosuppressed rats; 2 mg/kg injected twice daily for 7 days; vehicle 10% DMSO
Method: A similar rat study was conducted to determine the antipneumocystis activity of 1-[(4R,5R)-4,5-dihydroxy-N²-[4-(octyloxy)benzoyl]-L-ii ornithine]echinocandin B (Compound IBii). After 6 weeks of immunosuppression the rats were injected twice daily for 7 days with vehicle alone. Compound IBii (2 mg/kg) or Compound IA (2 mg/kg) during which time immunosuppression was continued. At the end of the treatment period the animals were sacrificed and the number of cysts per lung determined. Compound IA reduced the number of cysts by >99% while Compound IBii reduced the cyst counts by approximately 84% (compared to the vehicle control, 10% DMSO).

SMILES | number of cysts in the lungs (P. carinii [1]) | reduction of the number of cysts per lung compared to the vehicle control (P. carinii [2])
CCC(C)CC(C)CCCCCCCCC(=O)NC1CC(O)C(O)NC(=O)C2C(O)C(C)CN2C(=O)C(C(O)CC(N)=O)NC(=O)C(C(O)C(O)c2ccc(O)cc2)NC(=O)C2CC(O)CN2C(=O)C(C(C)O)NC1=O (stereo not drawn) [Compound IA] (X1-[ξOrn(4,5-diOH)]T[Hyp][ξhTyr(βξ-OH,γξ-OH)][X2][ξPro(3ξ-OH,4ξ-Me)]; lactam 1-C; configuration not given here) | No cysts could be found | > 99%
CCCCCCCCOc1ccc(C(=O)NC2C[C@@H](O)[C@@H](O)NC(=O)C3[C@@H](O)[C@@H](C)CN3C(=O)C(C(C)O)NC(=O)C([C@H](O)[C@@H](O)c3ccc(O)cc3)NC(=O)C3C[C@@H](O)CN3C(=O)C(C(C)O)NC2=O)cc1 (stereo partly drawn) [Compound IBii, 1-[(4R,5R)-4,5-dihydroxy-N²-[4-(octyloxy)benzoyl]-L-ornithine]echinocandin B] ({Benzoyl(4-octyloxy)}-[ξOrn(4R-OH,5R-OH)][ξT][ξPro(4R-OH)][ξhTyr(3S-OH,4S-OH)][ξT][X3]; lactam 1-C) | – | approximately 84%
